Measurements reported in patent US20230002327A1, “SMALL-MOLECULE REGULATOR OF TLR8” (TSINGHUA UNIVERSITY, priority 2019, published 2023).

Legend:
[1] = system: R848-induced signaling pathway in human peripheral blood mononuclear cells; assay: ELISA of TNF-α in R848-treated human peripheral blood mononuclear cells; format: cell-based; conditions: human peripheral blood mononuclear cells (FIG. 8)
Description: After 48 hours, suspending cells would adhere onto the surface of the 12-well plate, non-adhered cells and the medium were aspirated, and cells were washed with sterile […] buffer (3×1 mL). RPMI medium was added (1 mL/well), and R848 (1 μg/mL) and various concentrations of Compound 24 or Compound 10 (as a negative control) were further added to treat cells. Or, the same amount of peripheral blood mononuclear cells derived from healthy human were used instead of THP-1 cells for subsequent experiments.
After 24 hours, the supernatant of the medium was collected and stored in a freezer at −80° C. Cells were washed with PBS (3×1 mL), the 12-well plate was placed on ice, and then 400 μL of lysis buffer (containing protease inhibitor) was added to each well, during which the cells were pipetted every five minutes. After 20 minutes, the mixture was transferred to the corresponding 1.5-mL tube and centrifuged at 13.2K rpm and 4° C. for 20 minutes. 350 μL of the supernatant was collected into a new centrifuge tube and frozen at −80° C.
Cytokines interleukin-1β(IL-1β), interleukin-6 (IL-6) and tumor necrosis factor (TNF-α) were quantified by enzyme-linked immunosorbent assay (ELISA) according to the instructions of the kit provided by the manufacturer.

[2] = system: peripheral blood mononuclear cells of patients suffering from rheumatoid arthritis; assay: TNF-α in PBMC of rheumatoid arthritis patients; format: cell-based, human; conditions: PBMC derived from rheumatoid arthritis patients (FIG. 9)
Description: Approximately 8 mL of blood was collected from untreated rheumatoid arthritis patients.
Peripheral blood mononuclear cells (PBMCs) were isolated from the whole blood derived from 6 rheumatoid arthritis patients using the lymphocyte separation medium, and the cells were seeded in a 96-well round-bottom plate at a density of 1×10^6 cells/mL immediately after the isolation (cultured in RPMI 1640 (0.25 mL/well)).
Afterwards, cells were treated with 0, 10, 20, 40 and 80 μM Compound 24, Compound 10 was used as a negative control, and cells were placed in a cell incubator (37° C., 5% CO2) for incubation.
After 24 hours, the resultant was centrifuged at 4,000 rpm/minute for 10 minutes, and then the supernatant was collected, frozen to −80° C. and used for the determination of TNF-α. Quantification was conducted using a human TNF ELISA Kit.

**Q.** Which “inhibitory effect on inflammatory factor TNF-α” value [1] does the source give for `OCCCc1nnc(S)n1-c1ccc(Cl)cc1Cl` [Compound 10, 3-(4-(2,4-dichlorophenyl)-5-mercapto-4H-1,2,4-triazole-3-yl)propan-1-ol] here?
**A.** The value was “did not exert inhibitory effect”.

**Q.** And the “inhibitory effect on inflammatory factor TNF-α” value [2]?
**A.** The value was “did not show such effect”.
